Values quoted from earlier work, collected in patent US20110236473A1, “STABLE ALISKIREN FORMULATIONS” (Sanovel Ilac Sanayi Ve Ticaret Anonim Sirketi, priority 2010, published 2011).
Where two headings read alike, the source gives them in different places.

- solubility (in n-octanol): freely soluble
- solubility (in phosphate buffer): freely soluble
- solubility (in water): freely soluble
SMILES: COCCCOc1cc(C[C@@H](C[C@H](N)[C@@H](O)C[C@@H](C(=O)NCC(C)(C)C(N)=O)C(C)C)C(C)C)ccc1OC [Aliskiren hemifumarate, (2S,4S,5S,7S)-5-amino-N-(2-carbamoyl-2-methylpropyl)-4-hydroxy-2-isopropyl-7-[4-methoxy-3-(3-methoxypropoxy)benzyl]-8-methylnonamide]
